Assay results taken from patent US10745401B2, “Condensed lactam derivative” (Sumitomo Dainippon Pharma Co., Ltd., priority 2018, dated 2020).

How the values were obtained:
[1] = target: T1, human 5-HT1A receptor (Homo sapiens (Human), UniProt P08908); assay: Test 1: binding activity for human 5-HT1A receptor ([3H]8-OH-DPAT, CHO cell membrane fraction)
Description: (§1) Test 1: Evaluation of Binding Activity for Human 5-HT1A Receptor, Human 5-HT2A Receptor, and Human D2 Receptor
(§2) Binding affinity of the present compound for human 5-HT1A receptor, human 5-HT2A receptor, and human D2 receptor was measured by the following procedures.
(§3) Each mixture was incubated at room temperature for 60 minutes. Then, the mixture was added quickly on a glassfiber filter plate (Multiscreen FB, Millipore, Inc.) coated with 0.3% aqueous polyethylenimine, and vacuum-filtered. Radioactivity remaining on the filter was measured with a liquid scintillation counter (PerkinElmer, Inc.). Binding inhibition rate was calculated from the following formula.
IC50 value was calculated by Hill analysis (Physiology, 1910, 40, 190-200). Ki of each compound was calculated from the following formula. Binding inhibition constant (Ki)=IC50/(1+S/Kd) wherein S is concentration of ligand; Kd is a binding dissociation constant of ligand to membrane, which is calculated from a saturated binding experiment conducted with the same cell membrane. A small Ki value means strong binding ability to a receptor.

[2] = target: human D2 receptor (Homo sapiens (Human), UniProt P14416); assay: Test 1: binding activity for human D2 receptor ([3H]Spiperone, CHO cell membrane fraction); details: human D2 receptor, [3H]Spiperone
Description: as §1, §2, §3
Ki of each compound was calculated from the following formula. Binding inhibition constant (Ki)=IC50/(1+S/Kd) wherein S is concentration of ligand; Kd is a binding dissociation constant of ligand to membrane, which is calculated from a saturated binding experiment conducted with the same cell membrane. A small Ki value means strong binding ability to a receptor.

[3] = target: T1, human 5-HT1A receptor; assay: Test 2: agonist activity for human 5-HT1A receptor ([35S]GTPγS binding); format: biochemical; details: for EC50: [35S]GTPγS binding, concentration at which half the activity of Emax was obtained; for Emax at 10 µM: agonist activity in the presence of 10 μM of compound, relative to 100 μmol/L 5-HT
Description: Test 2: Evaluation of Agonist Activity for Human 5-HT1A Receptor
CHO cell membrane fraction in which human 5-HT1A receptor was expressed as used in Test 1 was purchased. To a buffer containing guanosine diphosphate were added a test compound dissolved in DMSO, each receptor membrane sample diluted with buffer, and [^35S] Guanosine 5′-O-[gamma-thio]triphosphate (GTPγS). The mixture was incubated at room temperature for 60 minutes. Then, the mixture was added quickly on a glassfiber filter plate (Multiscreen FB, Millipore, Inc.), and vacuum-filtered. Radioactivity remaining on the […] was measured with a liquid scintillation counter. Agonist activity was calculated from the following formula.

[4] = Test 4: metabolic stability test in human hepatic microsome; format: in vitro ADME; details: 0.1 mg/mL microsome, 0.1 μmol/L compound, 37° C., 30 minutes
Description: Test 4: Metabolic Stability Test in Human Hepatic Microsome
The stability of the present compound in human hepatic microsome metabolism was evaluated as mentioned below. Human hepatic microsome was obtained from Xenontech. Human hepatic microsome, NADPH, and each test compound were mixed in 25 mmol/L phosphate buffer solution (pH 7.4) to reach the following concentrations as shown below, and the mixture was incubated at 37° C. for 30 minutes. • Human hepatic microsome: 0.1 mg/mL • NAPDH: 3.2 mmol/L • Test compound: 0.1 μmol/L
The residual ratio of the test compound in each sample after 30 minutes was measured by LC-MS, and the metabolic stability in human hepatic microsome was calculated from the following formula. Metabolic stability in human hepatic microsome (mL/min/mg protein)=−LN (residual ratio)/30/0.1

[5] = target: hERG channel (Homo sapiens (Human), UniProt Q12809); assay: Test 6-1: inhibitory activity for hERG channel (auto patch clamp, Qpatch); format: cell-based; details: whole cell auto patch clamp, hERG-CHO cells; read-out: hERG inhibition IC50
Description: Test 6-1: Evaluation of Inhibitory Activity for hERG Channel
Inhibitory activity of the present compound for hERG channel was measured by whole cell patch clamp method with an auto patch clamp system using CHO cells in which hERG channel involved in human rapidly activating delayed rectifier potassium current (IKr) was forcibly expressed.
hERG-CHO cells purchased from ChanTest Cop. were cultured in a CO2 incubator at 37° C., and dissociated from a flask with trypsin shortly before the measurement of hERG current, to prepare a cell suspension.
Extracellular fluid: 2 mmol/L CaCl2, 1 mmol/L MgCl2, 10 mmol/L HEPES, 4 mmol/L KCl, 145 mmol/L NaCl, 10 mmol/L Glucose
Intracellular fluid: 5.4 mmol/L CaCl2, 1.8 mmol/L MgCl2, 10 mmol/L HEPES, 31 mmol/L KOH, 10 mmol/L EGTA, 120 mmol/L KCl, 4 mmol/L Na2-ATP
Test compound solution: Test compound was dissolved in DMSO to reach the concentration of 2 mmol/L or 20 mmol/L, in order to prepare a test compound solution. […] (Measurement of Current Value and Data Analysis)
The cell suspension, the extracellular fluid, the intracellular fluid, and the measurement plate were set in the auto patch clamp system, and hERG current was measured by whole cell patch clamp method. […] Each pulse interval was 15 seconds. The data analysis was carried out with Qpatch Assay Software (Biolin Scientific). The test was carried out by applying incrementally 4 concentrations of each test compound, and the average of the maximum peak tail currents which were obtained from the last 3 stimulations in each concentration was determined as the evaluated data. Based on the current inhibition rate for a pre-applied current at each concentration of each test compound, IC50 value was calculated by Hill equation with the software.

T1 sequence (P08908 whole entry): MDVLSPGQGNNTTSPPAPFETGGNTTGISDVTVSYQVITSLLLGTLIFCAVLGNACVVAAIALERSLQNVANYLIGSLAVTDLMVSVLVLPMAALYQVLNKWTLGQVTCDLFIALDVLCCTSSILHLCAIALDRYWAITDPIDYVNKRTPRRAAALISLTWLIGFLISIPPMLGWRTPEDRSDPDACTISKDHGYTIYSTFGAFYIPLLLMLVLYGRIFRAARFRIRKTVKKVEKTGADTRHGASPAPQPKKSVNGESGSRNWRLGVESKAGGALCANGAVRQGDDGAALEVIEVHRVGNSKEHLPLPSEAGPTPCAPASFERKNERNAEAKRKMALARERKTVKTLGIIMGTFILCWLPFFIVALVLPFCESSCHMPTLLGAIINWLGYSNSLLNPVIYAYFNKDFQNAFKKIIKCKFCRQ
human D2 receptor, sequence (P14416 whole entry): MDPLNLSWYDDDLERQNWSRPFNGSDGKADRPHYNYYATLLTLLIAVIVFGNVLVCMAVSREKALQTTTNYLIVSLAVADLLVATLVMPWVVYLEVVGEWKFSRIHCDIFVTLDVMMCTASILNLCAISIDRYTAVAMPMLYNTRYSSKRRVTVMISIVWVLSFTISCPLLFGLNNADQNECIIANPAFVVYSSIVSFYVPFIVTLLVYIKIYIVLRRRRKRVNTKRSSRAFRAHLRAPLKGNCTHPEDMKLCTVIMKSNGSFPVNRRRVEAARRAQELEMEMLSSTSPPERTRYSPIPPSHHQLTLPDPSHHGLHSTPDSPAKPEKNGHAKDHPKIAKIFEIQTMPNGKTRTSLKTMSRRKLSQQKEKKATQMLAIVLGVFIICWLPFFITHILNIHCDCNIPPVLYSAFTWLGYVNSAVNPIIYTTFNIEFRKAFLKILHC
hERG channel, sequence (Q12809 whole entry): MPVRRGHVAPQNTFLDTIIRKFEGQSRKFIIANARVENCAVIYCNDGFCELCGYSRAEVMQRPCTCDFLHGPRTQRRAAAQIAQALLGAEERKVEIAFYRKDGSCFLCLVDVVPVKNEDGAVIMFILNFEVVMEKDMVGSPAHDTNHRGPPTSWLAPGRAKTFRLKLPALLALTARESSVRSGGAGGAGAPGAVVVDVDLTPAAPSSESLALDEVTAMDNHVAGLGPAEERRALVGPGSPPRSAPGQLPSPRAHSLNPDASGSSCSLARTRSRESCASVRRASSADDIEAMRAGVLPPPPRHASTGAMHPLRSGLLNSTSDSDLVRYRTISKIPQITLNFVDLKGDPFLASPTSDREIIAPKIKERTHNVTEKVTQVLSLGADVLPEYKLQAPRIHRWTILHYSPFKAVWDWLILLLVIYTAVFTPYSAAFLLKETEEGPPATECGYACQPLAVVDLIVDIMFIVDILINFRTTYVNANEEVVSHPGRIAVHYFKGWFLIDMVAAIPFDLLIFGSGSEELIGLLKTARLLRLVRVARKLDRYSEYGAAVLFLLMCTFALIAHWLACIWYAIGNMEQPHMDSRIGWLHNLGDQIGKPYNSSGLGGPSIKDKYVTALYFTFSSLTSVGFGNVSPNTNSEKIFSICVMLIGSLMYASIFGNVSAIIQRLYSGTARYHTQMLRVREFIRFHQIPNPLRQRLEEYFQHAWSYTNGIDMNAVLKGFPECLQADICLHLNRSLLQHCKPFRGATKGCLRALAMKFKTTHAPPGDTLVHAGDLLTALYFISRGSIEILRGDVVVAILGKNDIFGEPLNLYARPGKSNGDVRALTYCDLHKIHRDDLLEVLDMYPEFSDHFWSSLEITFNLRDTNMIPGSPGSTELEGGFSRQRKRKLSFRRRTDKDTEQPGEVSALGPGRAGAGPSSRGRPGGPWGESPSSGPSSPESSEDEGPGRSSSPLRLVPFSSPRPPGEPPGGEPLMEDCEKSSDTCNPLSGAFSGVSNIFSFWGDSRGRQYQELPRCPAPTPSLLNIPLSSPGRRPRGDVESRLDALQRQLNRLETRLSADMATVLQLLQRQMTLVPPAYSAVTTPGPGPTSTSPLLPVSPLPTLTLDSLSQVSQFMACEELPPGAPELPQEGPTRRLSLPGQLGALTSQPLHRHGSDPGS

Row | Compound | Ki [1] | Ki [2] | EC50 [3] | Emax at 10 µM [3] | Metabolic stability in human hepatic microsome [4] | IC50 [5]
1 | O=c1c2cnc(C(F)(F)F)cc2ccn1CCN1CCN(c2nsc3ccccc23)CC1 [Example 172] | 3.33 nM | 384 nM | 8.2 nM | 72% |  | 
2 | CC1(C)CN(CCN2CCC(c3noc4cc(F)ccc34)CC2)C(=O)c2ncccc21 [Example 119] | 3.9 nM | 105 nM | 63.9 nM | 35% |  | 
3 | Cc1ccc2c(C3CCN(CCN4CCc5cccnc5C4=O)CC3)noc2c1 [Example 118] | 73.1 nM | 276 nM | 550 nM | 5% |  | 
4 | O=C1c2cnn(C3CC3)c2CCN1CCN1CCN(c2nsc3ccccc23)CC1 [Example 160] | 20.2 nM | 170 nM | 844 nM | 43% | 0.13 mL/min/mg protein | 
5 | CC(CN1CCC(c2noc3cc(F)ccc23)CC1)N1CCc2cccnc2C1=O (centres unmarked) [Example 122] | 24 nM | 537 nM | 121 nM | 23% | <0.05 mL/min/mg protein | 
6 | Cn1ccc2c1CCCN(CCN1CCN(c3noc4ccccc34)CC1)C2=O [Example 109, 5-{2-[4-(1,2-Benzoisoxazol-3-yl)piperazin-1-yl]ethyl}-1-methyl-5,6,7,8-tetrahydropyrrolo[3,2-c]azepin-4 (H)-one] |  | 601 nM |  | 60% | <0.01 mL/min/mg protein | 11300 nM
7 | O=C1c2[nH]cnc2CCCN1CCN1CCN(c2nsc3ccccc23)CC1 [Example 100, 5-{2-[4-(1,2-Benzoisothiazol-3-yl)piperazin-1-yl]ethyl}-5,6,7,8-tetrahydroimidazo[4,5-c]azepin-4(3H)-one] | 6.35 nM | 6940 nM | 86.5 nM | 58% |  | 
8 | CC(C)c1ncc2c(=O)n(CCN3CCN(c4nsc5ccccc45)CC3)ccc2n1 [Example 181] | 48.6 nM | 3690 nM | 79 nM | 53% | 0.791 mL/min/mg protein | 
9 | O=c1c2ncccc2ccn1CCN1CCN(c2nsc3ccccc23)CC1 [Example 8] |  |  |  | 50% | 0.064 mL/min/mg protein | 2000 nM
10 | O=C1c2cccnc2CCN1CCN1CCN(c2noc3ccccc23)CC1 [Example 153, 6-{2-[4-(1,2-Benzoisoxazol-3-yl)piperazin-1-yl]ethyl}-7,8-dihydro-1,6-naphthyridin-5(6H)-one] |  |  |  | 16% | <0.05 mL/min/mg protein | 7100 nM
11 | O=C1c2nc(Cl)ccc2CCN1CCN1CCN(c2noc3ccccc23)CC1 [Example 144] |  | > 10000 nM |  | 53% | <0.05 mL/min/mg protein | 
12 | O=c1c2cnc(C(F)(F)F)cc2ccn1CCN1CCC(c2noc3ccccc23)CC1 [Example 84] |  | 954 nM |  | 59% |  | 
13 | Cn1cc2c(n1)C(=O)N(CCN1CCC(c3noc4ccccc34)CC1)CCC2 [Example 48] |  | 574 nM |  | 37% | <0.01 mL/min/mg protein | 1200 nM
14 | Cn1nc2c(c1Br)C(=O)N(CCN1CCC(c3noc4ccccc34)CC1)CC2 [Example 74] | 3.48 nM | 210 nM | 4.42 nM | 51% |  | 
15 | Cc1ccc2c(n1)C(=O)N(CCN1CCC(c3noc4ccccc34)CC1)CC2 [Example 187] |  |  |  |  | <0.05 mL/min/mg protein | 
16 | O=C1c2cn[nH]c2CCN1CCN1CCN(c2nsc3ccccc23)CC1 [Example 169] | 44.2 nM | 1920 nM | 62.9 nM | 44% |  | 
17 | O=C1c2ncccc2CCC1CCN1CCN(c2noc3cc(F)ccc23)CC1 (centres unmarked) [Example 143] | 26.5 nM | 402 nM | 1040 nM | 31% |  | 800 nM
18 | Cc1ccc2c(n1)C(=O)N(CCN1CCC(c3noc4ccccc34)CC1)CC2 [Example 186] |  |  |  |  | 0.095 mL/min/mg protein | 
19 | Cn1nc(Br)c2c1CCN(CCN1CCC(c3noc4ccccc34)CC1)C2=O [Example 70] | 14.1 nM | 867 nM | 79.3 nM | 50% |  | 
20 | CCc1nc2c(o1)C(=O)N(CCN1CCN(c3nsc4ccccc34)CC1)CC2 [Example 71] | 2.64 nM | 305 nM | 7.34 nM | 67% |  | 
21 | Cc1ncc2c(=O)n(CCN3CCC(c4noc5ccccc45)CC3)ccc2n1 [Example 194, 6-{2-[4-(1,2-Benzoisoxazol-3-yl)piperidin-1-yl]ethyl}-2-methylpyrido[4,3-d]pyrimidin-5(6H)-one] |  |  |  |  | <0.05 mL/min/mg protein | 4900 nM
22 | Cn1nc2c(c1Br)C(=O)N(CCN1CCN(c3nsc4ccccc34)CC1)CC2 [Example 73] | 0.97 nM | 234 nM |  |  |  | 
23 | Cc1cc2c(cn1)C(=O)N(CCN1CCN(c3noc4ccccc34)CC1)CC2(C)C [Example 86] | 9.9 nM | 1210 nM | 16 nM | 51% |  | 
24 | Cn1cc2c(n1)CCN(CCN1CCC(c3noc4ccccc34)CC1)C2=O [Example 17] |  | 689 nM |  | 52% | <0.01 mL/min/mg protein | 1000 nM
25 | O=C1c2oc(C3CC3)nc2CCN1CCN1CCC(c2noc3ccccc23)CC1 [Example 68] |  | 853 nM |  | 38% | 0.056 mL/min/mg protein | < 270 nM
